Test results reported in patent US10562912B2 (C&C Research Laboratories, priority 2013, dated 2020).

How the values were obtained:
Assay type in all cases: cell-based
STAT3 = target: T1, STAT3 (Homo sapiens, UniProt P40763); assay: STAT3 reporter gene assay (luciferase), LNCaP stable cell line (pSTAT3-TA-luc), IL-6 stimulation
T1 construct: plasmid pSTAT3-TA-luc), which contains a stably operating STAT3 promoter; endogenous in cells
Outline: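 LNCaP cells stably carrying pSTAT3-TA-luc, in RPMI1640 with 3% DCC-FBS, were treated with compound and then stimulated with 10 ng/mL IL-6 for 24–48 h at 37 °C. Luciferase activity was measured in lysates. A parallel plate measured viability by CellTiter-Glo, with stimulated 0.1% DMSO wells as the positive control.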

AGS = assay: Cell growth inhibition assay, stomach cancer cell line AGS; conditions: Homo sapiens; AGS stomach cancer cell line, 3,000 cells/well
Experimental: The inhibitory effects of the compounds of the present invention against the growth of cancer cells were evaluated as shown below. The cancer cell lines including stomach cancer cell line (AGS), breast cancer cell lines (MDA-MB-231, MDA-MB-468, and BT-549), prostate cancer cell lines (LNCaP and DU-145), colon cancer cell line (HCT116), ovarian cancer cell line (SW626), liver cancer cell line (Hep3B), kidney cancer cell line (ACHN), lung cancer cell line (NCI-H23) and blood cancer cell lines (HEL92.1.7 and U266) were cultured under the protocol provided by each supplier. A medium supplemented with 10 ng/mL of IL-6 was used for LNCaP, a prostate cancer cell line, when treated with a drug. Each type of cells to be used in experiments were sub-cultured in a 96-well plate by counting the exact number of cells using Tali™ Image-based Cytometer (Life Technologies). In a 96-well plate, AGS, HCT116, and DU-145 were employed with 3,000 cells/well; NCI-H23, SW626, Hep3B, ACHN, BT-549, MDA-MB-231, HEL92.1.7, and U266 were employed with 5,000 cells/well; and LNCaP and MDA-MB-468 were employed with 10,000 cells/well. The cells were treated with the compounds listed in Examples which were diluted in various concentrations. Upon completion of the compounds treatment, AGS, HCT116, SW626, DU145, NCI-H23, Hep3B, ACHN, BT-549, LNCaP, HEL92.1.7, and U266 cells were cultured at 37° C. under 5% CO2 for from 72 to 96 hours, and MDA-MB-231 and MDA-MB-468 cells were cultured at 37° C. in air for from 72 to 96 hours. Subsequently, the cells were observed under microscope and drug precipitation and particular findings were investigated and recorded. And then, the 96-well plate was placed at room temperature for 30 minutes, added with 20 μL/well of CellTiter-Glo solution (Cat No. G7573, Promega) and shaken for 10 minutes, followed by being subjected to the measurement using PHERAstar™ microplate reader (BMG LABTECH) according to the supplier's general luminometer protocol. Wells where only culture liquid added without cell plating were used as a negative control, whereas wells where culture liquid containing 0.1% DMSO instead of the compounds listed in Examples were used as a positive control.

LNCaP = assay: Cell growth inhibition assay, prostate cancer cell line LNCaP (medium with 10 ng/mL IL-6); conditions: Homo sapiens, medium supplemented with 10 ng/mL of IL-6, 10,000 cells/well
MDA-MB-231 = assay: Cell growth inhibition assay, breast cancer cell line MDA-MB-231; conditions: Homo sapiens; MDA-MB-231 breast cancer cell line, 5,000 cells/well
DU-145 = assay: Cell growth inhibition assay, prostate cancer cell line DU-145; conditions: Homo sapiens, DU-145 prostate cancer cell line
Outline: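 DU-145 and HCT116 cells were plated at 3,000 cells/well and SW626 at 5,000 cells/well, then treated with serially diluted compounds. After 72 to 96 hours at 37° C. under 5% CO2, viability was read by CellTiter-Glo luminescence against cell-free medium wells and 0.1% DMSO wells.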

HEL92.1.7 = assay: Cell growth inhibition assay, blood cancer cell line HEL92.1.7; conditions: Homo sapiens, HEL 92.1.7, HEL92.1.7 blood cancer cell line
Outline: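 Cells were seeded at 3,000/well (HCT116, DU-145) or 5,000/well (SW626 and the others) and exposed to serial compound dilutions for 72 to 96 h at 37 °C under 5% CO2. Viability was read as CellTiter-Glo luminescence against 0.1% DMSO and cell-free wells.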

T1 sequence (P40763 whole entry): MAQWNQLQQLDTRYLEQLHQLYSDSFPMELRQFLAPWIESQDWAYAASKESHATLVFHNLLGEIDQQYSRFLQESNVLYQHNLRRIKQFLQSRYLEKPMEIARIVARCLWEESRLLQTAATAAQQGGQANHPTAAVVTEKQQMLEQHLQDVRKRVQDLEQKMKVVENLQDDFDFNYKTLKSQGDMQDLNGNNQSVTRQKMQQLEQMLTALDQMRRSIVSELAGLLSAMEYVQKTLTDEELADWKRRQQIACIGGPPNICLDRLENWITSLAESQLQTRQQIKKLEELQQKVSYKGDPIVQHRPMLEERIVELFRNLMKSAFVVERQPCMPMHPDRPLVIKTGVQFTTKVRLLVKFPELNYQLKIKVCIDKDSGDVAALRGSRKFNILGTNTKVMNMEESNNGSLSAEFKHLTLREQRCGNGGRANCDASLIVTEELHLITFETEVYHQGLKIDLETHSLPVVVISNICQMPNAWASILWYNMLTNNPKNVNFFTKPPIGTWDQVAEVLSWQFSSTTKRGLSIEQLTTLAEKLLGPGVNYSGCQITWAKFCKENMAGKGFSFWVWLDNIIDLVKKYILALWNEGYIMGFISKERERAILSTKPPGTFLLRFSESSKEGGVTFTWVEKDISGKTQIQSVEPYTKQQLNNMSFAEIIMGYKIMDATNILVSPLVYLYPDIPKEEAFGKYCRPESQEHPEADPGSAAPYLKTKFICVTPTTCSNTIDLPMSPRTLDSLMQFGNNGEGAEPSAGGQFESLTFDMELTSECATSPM

SMILES	IC50 (STAT3) [µM]	IC50 (AGS) [µM]	IC50 (LNCaP) [µM]	IC50 (MDA-MB-231) [µM]	IC50 (DU-145) [µM]	IC50 (HEL92.1.7) [µM]
Cn1c(C(=O)Nc2cccc(-c3ccccc3C(F)(F)F)c2)cc2ccc(NS(C)(=O)=O)cc21 [Example 253, 1-methyl-6-(methylsulfonamido)-N-(2′-(trifluoromethyl)-[1,1′-biphenyl]-3-yl)-1H-indole-2-carboxamide]	4.7	7.6	8.5	–	–	–
CS(=O)(=O)Nc1ccc2cc(C(=O)Nc3cccc(S(=O)(=O)c4cccc(C#N)c4)c3)[nH]c2c1 [Example 402, N-(3-((3-cyanophenyl)sulfonyl)phenyl)-6-(methylsulfonamido)-1H-indole-2-carboxamide]	6.3	22.1	> 10	–	–	–
CS(=O)(=O)Nc1ccc2cc(C(=O)Nc3cc(C#N)cc(-c4ccc(F)cc4C(F)(F)F)c3)[nH]c2c1 [Example 315, N-(5-cyano-4′-fluoro-2′-(trifluoromethyl)-[1,1′-biphenyl]-3-yl)-6-(methylsulfonamido)-1H-indole-2-carboxamide]	2.6	25.9	3	–	–	–
NS(=O)(=O)Nc1ccc2cc(C(=O)Nc3cccc(-c4ccc(F)cc4F)c3)[nH]c2c1 [Example 274, N-(2′,4′-difluoro-[1,1′-biphenyl]-3-yl)-6-(sulfamoylamino)-1H-indole-2-carboxamide]	> 10	17.9	> 10	–	–	–
CS(=O)(=O)Nc1ccc2cc(C(=O)Nc3cccc(-c4ccc([N+](=O)[O-])cc4C(F)(F)F)c3)[nH]c2c1 [Example 285, 6-(methylsulfonamido)-N-(4′-nitro-2′-(trifluoromethyl)-[1,1′-biphenyl]-3-yl)-1H-indole-2-carboxamide]	2.5	13.6	3.3	–	–	–
CS(=O)(=O)Nc1ccc2cc(C(=O)Nc3cccc(S(=O)(=O)c4cccc(Br)c4)c3)[nH]c2c1 [Example 414, N-(3-((3-bromophenyl)sulfonyl)phenyl)-6-(methylsulfonamido)-1H-indole-2-carboxamide]	1.7	14.4	9.6	–	–	–
CS(=O)(=O)Nc1ccc2c(c1)NC(C(=O)Nc1cccc(-c3ccc(F)cc3C(F)(F)F)c1)C2 (stereo not drawn) [Example 262, N-(4′-fluoro-2′-(trifluoromethyl)-[1,1′-biphenyl]-3-yl)-6-(methylsulfonamido)indoline-2-carboxamide]	5.3	> 50	9.8	–	–	–
Cn1c(C(=O)Nc2cccc(-c3ccccc3C(F)(F)F)c2)cc2ccc([N+](=O)[O-])cc21 [Example 249, 1-methyl-6-nitro-N-(2′-(trifluoromethyl)-[1,1′-biphenyl]-3-yl)-1H-indole-2-carboxamide]	> 10	8.4	> 10	–	–	–
COC(=O)c1ccc(Cl)c(-c2ccnc(NC(=O)c3cc4ccc(NS(C)(=O)=O)cc4[nH]3)c2)c1 [Example 300, methyl 4-chloro-3-(2-(6-(methylsulfonamido)-1H-indole-2-carboxamido)pyridin-4-yl)benzoate]	5.3	> 50	> 10	–	–	–
O=C(Nc1cccc(-c2ccccc2C(F)(F)F)c1)c1cc2ccc([N+](=O)[O-])cc2[nH]1 [Example 226, 6-nitro-N-(2′-(trifluoromethyl)-[1,1′-biphenyl]-3-yl)-1H-indole-2-carboxamide]	6.3	6.9	> 10	–	–	–
CC(C)(c1cc(Br)cc(NC(=O)c2cc3cc(NS(C)(=O)=O)ccc3s2)c1)c1ccc(F)cc1F [Example 35, N-(3-bromo-5-(2-(2,4-difluorophenyl)propan-2-yl)phenyl)-5-(methylsulfonamido)benzo[b]thiophene-2-carboxamide]	0.076	–	0.067	0.027	0.06	0.28
CS(=O)(=O)Nc1ccc2cc(C(=O)Nc3cccc(-c4ccc(F)cc4F)c3)[nH]c2c1 [Example 270, N-(2′,4′-difluoro-[1,1′-biphenyl]-3-yl)-6-(methylsulfonamido)-1H-indole-2-carboxamide]	0.38	–	1.01	0.7	–	1.7
CS(=O)(=O)Nc1ccc2sc(C(=O)Nc3cc(Br)cc(-c4ccc(F)cc4F)c3)cc2c1 [Example 305, N-(5-bromo-2′,4′-difluoro-[1,1′-biphenyl]-3-yl)-5-(methylsulfonamido)benzo[b]thiophene-2-carboxamide]	0.067	–	0.072	0.001	0.03	0.24
CC(C)(c1cc(Br)cc(NC(=O)c2cc3ccc(NS(C)(=O)=O)cc3[nH]2)c1)c1ccc(F)cc1F [Example 15, N-(3-bromo-5-(2-(2,4-difluorophenyl)propan-2-yl)phenyl)-6-(methylsulfonamido)-1H-indole-2-carboxamide]	0.12	–	0.29	0.068	0.25	1.8
CN(c1ccc2cc(C(=O)Nc3cccc(-c4ccc(F)cc4F)c3)[nH]c2c1)S(C)(=O)=O [Example 344, N-(2′,4′-difluoro-[1,1′-biphenyl]-3-yl)-6-(N-methylmethylsulfonamido)-1H-indole-2-carboxamide]	0.15	–	0.014	0.1	–	0.49
CN(c1ccc(Cl)cc1)c1cc(Cl)cc(NC(=O)c2cc3cc(NS(C)(=O)=O)ccc3s2)c1 [Example 440, N-(3-chloro-5-((4-chlorophenyl)(methyl)amino)phenyl)-5-(methylsulfonamido)benzo[b]thiophene-2-carboxamide]	0.036	–	0.021	–	0.012	0.085
CC(C)(c1cc(Cl)cc(NC(=O)c2cc3cc(NS(C)(=O)=O)ccc3s2)c1)N1CCCCC1 [Example 164, N-(3-chloro-5-(2-(piperidin-1-yl)propan-2-yl)phenyl)-5-(methylsulfonamido)benzo[b]thiophene-2-carboxamide]	0.72	–	0.9	–	> 1.1	> 1.1
CC(C)(c1cc(F)cc(NC(=O)c2cc3cc(NS(C)(=O)=O)ncc3s2)c1)c1cc(OC(F)(F)F)cc(OC(F)(F)C(F)F)c1 [Example 86, N-(3-fluoro-5-(2-(3-(1,1,2,2-tetrafluoroethoxy)-5-(trifluoromethoxy)phenyl)propan-2-yl)phenyl)-5-(methylsulfonamido)thieno[2,3-c]pyridine-2-carboxamide]	0.072	–	0.075	–	0.047	0.23
Cn1cccc1C(C)(C)c1cc(Cl)cc(NC(=O)c2cc3cc(NS(C)(=O)=O)ccc3s2)c1 [Example 169, N-(3-chloro-5-(2-(1-methyl-1H-pyrrol-2-yl)propan-2-yl)phenyl)-5-(methylsulfonamido)benzo[b]thiophene-2-carboxamide]	0.039	–	0.073	–	0.021	0.09
CC(C)Oc1cc(OC(F)(F)F)cc(C(C)(C)c2cc(Cl)cc(NC(=O)c3cc4cc(NS(=O)(=O)CCN(C)C)ccc4s3)c2)c1 [Example 208, N-(3-chloro-5-(2-(3-isopropoxy-5-(trifluoromethoxy)phenyl)propan-2-yl)phenyl)-5-((2-(dimethylamino)ethyl)sulfonamido)benzo[b]thiophene-2-carboxamide]	0.17	–	0.22	–	0.08	0.33
CS(=O)(=O)Nc1ccc2cc(C(=O)Nc3cc(Br)cc(-c4ccc(F)cc4F)c3)[nH]c2c1 [Example 302, N-(5-bromo-2′,4′-difluoro-[1,1′-biphenyl]-3-yl)-6-(methylsulfonamido)-1H-indole-2-carboxamide]	0.4	–	2.5	0.11	0.57	2.7
